According to patent US20250213524A1, “COMPOSITIONS FOR USE” (Amazentis SA, priority 2023, published 2025):

Test system: human sperm
Test: Ex vivo incubation of human semen samples with urolithin A, motility by computer-assisted semen analysis (CEROS II)
Format: cell-based
Conditions: for Motile sperm concentration (million/mL), UA vs. DMSO: 4 hours incubation at 36° C.; for Motile sperm concentration (million/mL), UA vs. DMSO / BCF Beat Cross-Frequency, UA vs. DMSO / Rapid progressive motile sperm concentration (million/mL), UA vs. DMSO: increase vs. DMSO; for Rapid progressive motile sperm concentration (million/mL), UA vs. DMSO: rapid progressive motility >25 μm/s; for motile sperm concentration: increase
Description: Sperm samples from five healthy men donors were processed within 1 hour of collection. 3 samples were either diluted 1:1 in culture media containing DMSO or urolithin A (UA) (0.05, 0.1, 0.5, and 2.0 μM in DMSO). For these samples, all treatments contained the same amount of DMSO. Two samples were pre-diluted in culture media, which was then diluted in the treatment solutions, immediately. This was to decrease the eventual effect of seminal plasma. Samples were incubated for 4 hours with the indicated UA doses. For the study, semen samples were obtained by masturbation after 2-7 days of ejaculatory abstinence, according to World Health Organization Guidelines (https://www.who.int/publications/i/item/9789240030787). Samples were collected into sterile wide-mouth polypropylene containers tested for sperm toxicity (BIRR semen collection container, IVF store code 113102). After collection, samples were kept in an air incubator for 1 hour, until semen liquefaction. For experiments, a 50 mM stock Urolithin A (UA) solution was prepared in Dimethyl Sulfoxide (DMSO, Fisher Scientific, BP231-100). At the day of the experiments, a working solution was prepared by diluting the 50 mM stock solution 1:1000 in Sperm Washing Medium (FujiFilm Modified HTF Medium with Human Serum Albumin, 5.0 mg/mL, catalog ID: 9983). A blank working solution containing only DMSO was also prepared by diluting DMSO 1:1000 in Sperm Washing Medium. Treatment solutions were then prepared containing 0, 0.1 μM, 0.2 μM, 1.0 μM, and 4.0 μM were prepared as follows: Treatment solutions were then diluted 1:1 with raw semen (samples A, B, and D) or with semen that had been pre-diluted 1:1 in Sperm Washing Medium (samples C and E), so that final achieved treatment concentrations were 0 (blank, DMSO only, 0.05 µM, 0.1 μM, 0.5 μM, and 2.0 µM UA. This was incubated at 36° C. for 4 hours, after which motility was assessed using a CEROS II system for computer-assisted semen analysis (Hamilton Thorne Inc., Beverly, MA, USA). To achieve this, 4-chamber 20 μm Leja slides (IMV International Ref. 025107-025108) were pre-heated at 37° C. 2.5 μL of each sample was pipetted into each chamber, and the Human Motility module of the CEROS II system was used to capture multiple fields (at least 6) in order to determine sperm motility parameters.

[1] = all doses (0.05, 0.1, 0.5, 2.0 μM), 4 hours incubation

Structure (SMILES): O=c1oc2cc(O)ccc2c2ccc(O)cc12 [UA, Urolithin A]
- Motile sperm concentration (million/mL), UA vs. DMSO (0.05 uM UA): 2%
- BCF Beat Cross-Frequency, UA vs. DMSO (0.05 uM UA, 4 hours incubation, motile sperm): 5%
- Rapid progressive motile sperm concentration (million/mL), UA vs. DMSO (0.05 uM UA, 4 hours incubation): 2%
- Motile sperm concentration (million/mL), UA vs. DMSO (0.1 uM UA): 16.8%
- BCF Beat Cross-Frequency, UA vs. DMSO (0.1 uM UA, 4 hours incubation, motile sperm): 6%
- Rapid progressive motile sperm concentration (million/mL), UA vs. DMSO (0.1 uM UA, 4 hours incubation): 20%
- Motile sperm concentration (million/mL), UA vs. DMSO (0.5 uM UA): 10.7%
- BCF Beat Cross-Frequency, UA vs. DMSO (0.5 uM UA, 4 hours incubation, motile sperm): 9%
- Rapid progressive motile sperm concentration (million/mL), UA vs. DMSO (0.5 uM UA, 4 hours incubation): 10%
- Motile sperm concentration (million/mL), UA vs. DMSO (2 uM UA): 21.4%
- BCF Beat Cross-Frequency, UA vs. DMSO (2 uM UA, 4 hours incubation, motile sperm): 7%
- Rapid progressive motile sperm concentration (million/mL), UA vs. DMSO (2 uM UA, 4 hours incubation): 20%
- Motile sperm concentration, effect in words [1]: increased at all doses
- Rapid progressive motile sperm concentration, effect in words [1]: increased at all doses
- Beat Cross-Frequency, effect in words (all doses (0.05, 0.1, 0.5, 2.0 μM), motile sperm, 4 hours incubation): an increase by UA at all doses
- sperm motility / sperm health, effect in words (applied ex vivo to human sperm, especially 0.1 uM to 2 uM): increases sperm motility
- motile sperm concentration (highest UA 2 μM dose, 4 hours incubation): 20%
- motile sperm concentration (lower dose of UA 0.05 μM, 4 hours incubation): 2%
